Laboratory results taken from patent publication US20190211397A1, “INHIBITORS OF GPR132 FOR USE IN PREVENTING AND/OR TREATING CHEMOTHERAPY-INDUCED NEUROPATHIC PAIN” (Fraunhofer-Gesellschaft zur Foerderung der angewandten …, priority 2016, published 2019).
Entries after “also recorded” stand apart in the source; their conditions may differ.

Assays:
PKC = PKC inhibitor on TRPV1 sensitization in DRG neurons (calcium imaging); assay type: cell-based, mice; conditions: GF109203X 1 μM 45 mins, 9-HODE 200 nM
Description: (§1) DRG primary cultures were prepared as described previously (Brenneis et al., 2011 b). Briefly, twenty to thirty murine dorsal roots ganglia (DRGs) were dissected from spinal segments and transferred directly into ice-cold Hanks' balanced salt solution with CaCI2 and MgCI2 (lnvitrogen, Carlsbad, Calif., USA). The DRGs were than incubated with Neurobasal Medium (lnvitrogen, Carlsbad, Calif., USA) containing 500 U/ml collagenase (Sigma, Deisenhofen, Germany) and 2.5 U/ml dispase II (Roche, Mannheim, Germany) for 75 mins at 37° C. […]
(§2) Calcium-imaging experiments were performed with a Leica calcium-imaging setup, consisting of a Leica DMI 4000 b inverted microscope equipped with a DFC360 FX (CCD) camera, Fura-2 filters, and an N-Plan 10×/0.25 Ph1 objective (all from Leica), was used. […] For each experiment, an area with large cell numbers 24 h after preparation (see DRG primary cultures) was chosen and 40-110 cells were monitored simultaneously. […]
(§3) TRPV1 sensitization can be mediated by PKA or PKC (Schnizler et al., 2008; Bhave et al., 2003). To investigate the signaling pathway between G2A and TRPV1 in DRG neurons, we determined which protein kinases are involved in sensitization of TRPV1. […]

TRPV1 = assay: Calcium imaging of DRG neurons: TRPV1 sensitization (two capsaicin stimuli, Δratio); assay type: cell-based, mice
Description: DRG primary cultures were prepared as described previously (Brenneis et al., 2011 b). Briefly, twenty to thirty murine dorsal roots ganglia (DRGs) were dissected from spinal segments and transferred directly into ice-cold Hanks' balanced salt solution with CaCI2 and MgCI2 (lnvitrogen, Carlsbad, Calif., USA). The DRGs were than incubated with Neurobasal Medium (lnvitrogen, Carlsbad, Calif., USA) containing 500 U/ml collagenase (Sigma, Deisenhofen, Germany) and 2.5 U/ml dispase II (Roche, Mannheim, Germany) for 75 mins at 37° C. After removal of the collagenase/dispase-solution cells were washed three times with medium containing 10% FCS, penicillin/streptomycin/gentamycin (lnvitrogen, Carlsbad, Calif., USA) and incubated in 0.05% trypsin for 10 min at 37° C. After two washing steps, the cells were mechanically dissociated with a 1 ml pipette and plated on Poly-L-lysine (Sigma) coated coverslips. After incubation at 37° C. for 2 h, Neurobasal Medium containing glutamine (2 mm), penicillin (100 U/ml), streptomycin (100 μg/ml), B-27 and gentamicin (50 μg/ml) was added to the cells and incubated overnight. The neurons were used for Calcium imaging the next day.
Calcium-imaging experiments were performed with a Leica calcium-imaging setup, consisting of a Leica DMI 4000 b inverted microscope equipped with a DFC360 FX (CCD) camera, Fura-2 filters, and an N-Plan 10×/0.25 Ph1 objective (all from Leica), was used. Images were taken every 2 s and were processed with the LAS AF-software (Leica). For each experiment, an area with large cell numbers 24 h after preparation (see DRG primary cultures) was chosen and 40-110 cells were monitored simultaneously. Cells were loaded with 5 μM fura-2-AM-ester (Biotium), incubated for 45-60 min at 37° C. and washed with ringer solution (145 mM NaCI, 1.25 mM CaCl2, 1 mM MgCl2, 5 mM KCI, 10 mM D-glucose, and 10 mM HEPES, adjusted to pH 7.3). Baseline measurements were performed with ringer solution at a flow rate of 1-2 ml/min at room temperature. For the activation of TRPV1 we used a solution of 200 nM capsaicin (Sigma), for TRPA1 activation 50 μM allyl isothiocyanate (AITC, Fluka Analytic) and for TRPM8 100 μM L-menthol (Sigma) dissolved in ringer solution. For TRP-channel sensitization, cells were incubated for 2 mins with different concentrations (50 nM-1000 nM) of (±) 9-HODE (Cayman) or (±) 13-HODE (Cayman) before the second stimulus took place. For control stimulations, the corresponding volume of DMSO (Sigma) was mixed in ringer solution and applied with the same flow rate. 10 μM of the PKA inhibitor H89 (Tocris) or 1 μM of the PKC inhibitor GF1 09203X (Tocris) was co-incubated with fura-2 for 45 mins. As positive control for PKA activation 40 iJM 8-bromo-cAMP (Cayman) and for PKC activation 500 nM bradykinin (Cayman) was used. At the end of each measurement, 50 mM KCl was applied to identify neurons.

PKA = PKA inhibitor on TRPV1 sensitization in DRG neurons (calcium imaging); assay type: cell-based, mice; conditions: H89 10 μM 45 mins
Description: as §1, §2, §3

C57BL/6N mice = assay: Mechanical pain thresholds of mice after oxaliplatin (dynamic plantar aesthesiometer); assay type: in vivo; conditions: oxaliplatin 3 mg/kg i.p.
Source text: In all behavioral tests the experimenter was unaware of the treatment and the genotype of the mice. For all behavioral experiments we used only 6-12 weeks old C57BU6N mice purchased from commercial breeding companies (Charles River, Sulzfeld, Germany, Janvier, Le Geneset-Saint-lsle, FR). G2A and TRPV1 knockout strains were from Jackson laboratories. All experiments followed the ethics guidelines for investigations in conscious animals and the procedures were approved by the local Ethics Committee. […]
To determine the mechanical thresholds of mice, a Dynamic Plantar Aesthesiometer (Ugo Basile, Comerio, Italy) was used. […] Therefore, a steel rod pushed against the plantar side of the hind paw with linear ascending force (0-5 g over 10 s, in 0.5 g/s intervals) until a fast withdraw of the paw was observed The time between the first contact of the steel rod and the paw withdraw was measured in seconds (paw withdraw latency) and a cut-off time of 20 s was set.
To investigate whether or not alterations in concentrations of oxidized lipids occur during oxaliplatin-induced neuropathic pain, 3 mg/kg oxaliplatin (Nassini et al., 2011) was injected i.p. in C57BL/6N mice and the paw withdrawal latency over 10 days was monitored using a dynamic plantar aesthesiometer. […]

patients = conditions: cited from earlier work
DRGs = assay: Real-time RT-PCR of DRGs of oxaliplatin treated mice; assay type: in vivo; conditions: lumbal DRGs, day 10 after oxaliplatin treatment
Description: Lumbar DRGs (L2-L6) were dissected, quick-frozen in liquid nitrogen and stored at −80° C. Total RNA of the DRGs was isolated under RNase-free conditions using a mirVana miRNA Isolation Kit (Ambion) according to the manufacturer's instructions and quantified with a NanoDrop ND-1000 spectrophotometer (NanoDrop Technologies). The cDNA was synthesized from 200 ng RNA using a First Strand cDNA Synthesis Kit (Thermo Scientific) according to the manufacturer's instructions. Real-time RT-PCR was performed using an ABI Prism 7500 Sequence Detection System (Applied Biosystems) using Maxima SYBR Green qPCR Master Mix ROX as well as suitable primers for CYP2C37 (Luo et al., 1998), CYP2C38 (Zhang et al., 2003), CYP2C39 (Luo et al., 1998), CYP2J6 (Choudhary et al., 2003) and CYP3A11 (Chavan et al., 2015).
For analysis of GAPDH (Mm99999915_g1), G2A (Mm02620285_s1), 5-LOX (Mm01182747 m1), 12-LOX (Mm00545833_m1), 15-LOX (Mm00507789_m1) and COX-2 (Mm03294838_g1) assay primer from ThermoFisher Scientific were used. Reactions (total volume 10 μl) were performed in triplicate by incubating at 95° C. for 10 min, followed by 40 cycles of 15 s at 95° C. and 1 min at 60° C. […] Relative expression of target gene levels was determined using the ΔΔCt method, with Ct indicating the cycle number at which the signal of the PCR product crosses a defined threshold set within the exponential phase of the PCR. […]

With `CN(C)CCCn1cc(C2=C(c3c[nH]c4ccccc34)C(=O)NC2=O)c2ccccc21` [GF109203X] the “effect on 9-HODE-induced TRPV1 sensitization” value (PKC) was “supresses the 9-HODE-dependent sensitization of TRPV1; also recorded: prevented TRPV1 sensitization”.

For `CCCCCC(O)/C=C/C=C\CCCCCCCC(=O)O` (stereo not drawn) [13-HODE], the “sensitization of TRPV1 (Δratio of first and second capsaicin stimulus)” value (TRPV1; DRG neurons, lipid incubated 2 minutes before second capsaicin stimulus, 0 to 1000 nM) was “no strong sensitizing effect” and the “calcium flux of second vs first capsaicin stimulus (Δratio)” value (TRPV1; wildtype DRG neurons, lipid 200 nM 120 s, capsaicin 200 nM 30 s) was “does not increase the Δratio”.

With `O=S(=O)(NCCNC/C=C/c1ccc(Br)cc1)c1cccc2cnccc12` [H89] the “effect on PKA-dependent TRPV1 sensitization caused by 8-bromo-cAMP” value (PKA; 8-bromo-cAMP 40 μM) was “inhibited” and the “effect on 9-HODE-induced TRPV1 sensitization” value (PKA; 9-HODE 200 nM) was “not influenced; also recorded: failed to supress”.

In the case of `O=C1[O][Pt]2([NH][C@@H]3CCCC[C@H]3[NH]2)[O]C1=O` [oxaliplatin], the “start of reduced mechanical paw withdrawal latencies” value (C57BL/6N mice) is listed as 4 days, the “mechanical paw withdrawal latencies” value (C57BL/6N mice; C57BL/6N mice, monitored over 10 days) is listed as “significantly reduced mechanical paw withdrawal latencies” and the “patients in whom CIPN is induced” value (patients) is listed as “up to 80%”. The “mRNA expression of CYP2J6, 5-LOX, 12-LOX, 15-LOX and COX-2” value (DRGs) was “No difference in mRNA expression”.
